A short description of data set [1]: UV-Vis absorbance loss and first-order bleaching kinetics of pigment solutions with ascorbic acid (pH 3.0 citrate buffer, 25° C., dark). The data set is classed as physicochemical. The conditions noted are these: for K (reaction rate, first-order) / t1/2: 25° C. dark. As for the experimental part: The semi-purified chokeberry extract, the isolated cyanidin-3-galactoside, and the purified 5-carboxypyranocyanidin-3-galactoside were diluted in pH 3.0 citrate buffer (0.1 M adjusted with HCl) until an absorbance of 1.0 at their respective λmax was reached. Levels of AA of 250, 500, and 1000 mg/L were added using a concentrated ascorbic acid stock solution, and a control consisting of each pigment with the absence of AA was maintained. The control consisted of the pigment in the buffer in the absence of AA. An additional test was performed with the same model juice using hydrogen peroxide, a known degradation product of AA. To determine if AA bleaching was due to formation of H2O2, direct addition of it was investigated. In place of added AA, a 62.2 μL of a 0.3% peroxide solution was added to match the molar equivalency of the 500 mg/L AA level, which was 2.84 mM. All samples were brought to the same final volume with additional citrate buffer. […] Samples were stored in the dark at 25° C. in an incubator. UV-Vis spectrophotometry, colorimetry, and HPLC analyses were conducted over a 5 day period following the addition of ascorbic acid or hydrogen peroxide. UV-Vis spectral data was collected every hour for the first 8 hours, and then at 12 hr, and daily from that point on for 5 days. […] HPLC analyses were conducted on days 0, 1, 3, and 5. All treatments were run in triplicate. A SpectraMax 190 Microplate Reader (Molecular Devices, Sunnyvale, Calif., U.S.) with a 96-well plate (poly-D-lysine coated polystyrene) were used for the evaluation of absorbance from 380-700 nm, 1 nm intervals. Aliquots (200 uL) of samples were loaded into individual wells, and a blank consisted of the same citrate buffer used. Because of the rapid nature of AA-induced color loss, degradation kinetics were evaluated in terms of change in maximum absorbance at the original λmax over time. Bleaching is a first-order reaction, typical of ACN degradation, and was modeled as such in determining the reaction rate and half-life. The decrease in maximum absorbance correlated with an increase in lightness (L*) as well as the decrease in chroma (c*). The reduction in maximum absorbance did closely follow first-order kinetics for chokeberry extract and cyanidin-3-galactoside but slightly deviated for 5-carboxypyranocyanidin-3-galactoside. […] The kinetics results for each pigment and AA level can be found in Table 3 below.

Data set [2] is described as follows: Colorimetry (CIEL*c*h*, ΔE) of pigment solutions with ascorbic acid. The data set is classed as physicochemical. The protocol: (§1) The semi-purified chokeberry extract, the isolated cyanidin-3-galactoside, and the purified 5-carboxypyranocyanidin-3-galactoside were diluted in pH 3.0 citrate buffer (0.1 M adjusted with HCl) until an absorbance of 1.0 at their respective λmax was reached. Levels of AA of 250, 500, and 1000 mg/L were added using a concentrated ascorbic acid stock solution, and a control consisting of each pigment with the absence of AA was maintained. The control consisted of the pigment in the buffer in the absence of AA. An additional test was performed with the same model juice using hydrogen peroxide, a known degradation product of AA. To determine if AA bleaching was due to formation of H2O2, direct addition of it was investigated. In place of added AA, a 62.2 μL of a 0.3% peroxide solution was added to match the molar equivalency of the 500 mg/L AA level, which was 2.84 mM.
(§2) All samples were brought to the same final volume with additional citrate buffer. […] Samples were stored in the dark at 25° C. in an incubator. UV-Vis spectrophotometry, colorimetry, and HPLC analyses were conducted over a 5 day period following the addition of ascorbic acid or hydrogen peroxide. UV-Vis spectral data was collected every hour for the first 8 hours, and then at 12 hr, and daily from that point on for 5 days. […] HPLC analyses were conducted on days 0, 1, 3, and 5. All treatments were run in triplicate.
Using UV-Vis spectral data (5 nm steps, 380-700 nm) in combination with software written for color conversion, absorbance data was translated to CIE-L*c*h*. The calculations for CIE-L*c*h* implemented by the software used CIE relative spectral power distribution for a D65 standard illuminants and 10° observer angle function. Color data is reported as L* (lightness), c* (chroma), and h* (hue angle).
Total color changes (ΔE) were calculated as the color change from day 0 to 5 for each respective treatment, and presented in Table 4.
Numbers are means of 3 replications, followed by (standard deviations). ΔE: total color change from day 0 (control) to day 5.

The nature of data set [3]: HPLC monitoring of pigment peaks with ascorbic acid. The data set is classed as physicochemical. As for the experimental part:
Prior to experimentation, pigments were evaluated for purity by using an analytical HPLC only different from the previously listed one by the use of different pumps (LC-20AD, Shimadzu, Md., US). Purified pigments were filtered using the Phenex RC 0.45 μm membranes. A binary system with 1 mL/min flow rate was used: solvent A: 4.5% formic acid in HPLC grade water and solvent B: HPLC grade acetonitrile. The gradient began with an isocratic flow of 6% solvent B for 17 minutes (elution of primary anthocyanins), increasing to 15% solvent B by 45 minutes (elution of primary pyranoanthocyanins), and to 40% solvent B by 50 minutes. A 10 μL injection volume was loaded onto a Phenomenex Kinetix 5 μm EVO C18 100 A. 150×4.6 mm column and Phenomenex Ultra UHPLC EVO C18 guard cartridge attached.
as §1, §2
Prepared solutions were monitored to determine the formation of potential degradation products or profile changes. Using the analytical HPLC system and conditions described, chromatograms were monitored with the max plot (260-700 nm), 490 nm (near λmax of 5-carboxypyranocyanidin-3-galactoside), and 520 nm (near ma of cyanidin-3-galactoside). A max plot of 470-520 nm was later added to standardize changes in the AUC for all three pigments and their degradation products.

Data set [4] can be described thus: Direct hydrogen peroxide addition to pigment solutions (HPLC, absorbance). The format is physicochemical. As for the experimental part:
as §1
All samples were brought to the same final volume with additional citrate buffer. […] Samples were stored in the dark at 25° C. in an incubator. UV-Vis spectrophotometry, colorimetry, and HPLC analyses were conducted over a 5 day period following the addition of ascorbic acid or hydrogen peroxide. […]
Auto-oxidation of AA in solution can give rise to H2O2 formation, a powerful bleaching agent that can further lead to rapid ACN degradation. […] HPLC profiles as well as maximum absorbance and λmax of the solutions were evaluated.

For data set [5] the following is noted: reported in literature; cited from earlier work.

Molecules are shown by their SMILES. Several values for one entry are separate records, joined by “and”; a condition that tells them apart may be missing. Identical values can stand only once. Some results are limits rather than exact numbers.

On to `O=C(O)C1=Cc2c(O[C@@H]3O[C@H](CO)[C@H](O)[C@H](O)[C@H]3O)c(-c3ccc(O)c(O)c3)[o+]c3cc(O)cc(c23)O1` [5-carboxypyranocyanidin-3-galactoside], for which the “K (reaction rate, first-order)” value in data set [1] (250 mg/L AA) is 2.69E−03; in data set [1] (500 mg/L AA), 4.61E−03; in data set [1] (1000 mg/L AA), 1.08E−02; in data set [1] (Control, no AA, absorbance at λvis-max), 7.08E−04. Besides, the t1/2 in data set [1] (250 mg/L AA) amounted to 258 h; in data set [1] (500 mg/L AA) it was 150 h; in data set [1] (1000 mg/L AA), 64 h. Further, the “reduction in maximum absorbance” value in data set [1] (500 mg/L AA, 5 day period) was determined as 38%. Besides, the “λmax after hypsochromic change” value in data set [1] (500 mg/L AA, after treatment) was 484 nm. Also, the “λmax before hypsochromic change” value in data set [1] (500 mg/L AA, start) was determined as 491 nm. For the same compound, the “time before a significant difference (p<0.05) in maximum absorbance from time 0” value in data set [1] (all levels of AA added) stood at 24 h. In addition, the “hypsochromic shift of λmax” value in data set [1] (over the 5 days of AA treatment, regardless of AA level) is reported as not above 10 nm. For the same compound, the “Chroma Day 0” value is listed as 55.2 (0.4) in data set [2] (250 mg/L AA); 54.7 (0.3) in data set [2] (500 mg/L AA); 54.3 (0.7) in data set [2] (Control, no AA). Besides, the “Chroma Day 5” value in data set [2] (250 mg/L AA) was 43.2 (0.2); in data set [2] (500 mg/L AA), 39.2 (0.3); in data set [2] (1000 mg/L AA), 36.2 (0.3); in data set [2] (Control, no AA), 49.9 (1.3). The “Hue Angle Day 0” value in data set [2] (250 mg/L AA) is 50.7 (0.2) °; in data set [2] (500 mg/L AA) it was 50.4 (0.1) °; in data set [2] (1000 mg/L AA), 51.0 ° and 51.0 (0.1) °; in data set [2] (Control, no AA) it was 50.0 (0.2) °. For the same compound, the “Hue Angle Day 5” value in data set [2] (250 mg/L AA) is 46.9 (.3) °; in data set [2] (500 mg/L AA), 48.3 (0.4) °; in data set [2] (1000 mg/L AA) it was 57.1 ° and 57.1 (0.7) °; in data set [2] (Control, no AA), 47.5 (0.6) °. Also, the “Lightness Day 0” value in data set [2] (250 mg/L AA) is 81.9 (0.1); in data set [2] (500 mg/L AA), 82.1(0.3); in data set [2] (Control, no AA, mean (SD), n=3), 82.2 (0.2). For the same compound, the “Lightness Day 5” value in data set [2] (250 mg/L AA) was 82.8 (0.3); in data set [2] (500 mg/L AA) it was 83.6 (0.4); in data set [2] (1000 mg/L AA), 83.7 (0.2); in data set [2] (Control, no AA), 82.2 (0.6). Moreover, the “ΔE Over 5 days” value in data set [2] (250 mg/L AA) was 4.5 (0.2); in data set [2] (500 mg/L AA), 5.0 (0.2); in data set [2] (1000 mg/L AA), 5.2 (0.5); in data set [2] (1000 mg/L AA, listed as 5-Carboxypyranocyanidin-3-galactoside), 5.2; in data set [2] (Control, no AA) it was 2.1 (0.4). The “L* after 48 hours” value in data set [2] (1000 mg/L AA, 48 hours) is listed as 86.6. Moreover, the “time until significant change in chroma as compared to the control” value in data set [2] (all levels of AA) was found to be 48 h. For the same compound, the initial hue angle in data set [2] (day 0) stood at 50 °. Further, the “target peaks left after 1 day” value in data set [3] (1000 mg/L AA, HPLC) is on record as 10%. Also, in data set [3] (1 g/L AA, HPLC AUC), the “reduction of pigment peak by day 1” value is 93%. Further, in data set [3] (1 g/L AA, HPLC AUC), the “reduction of pigment peak by day 5” value was determined as 99%. In addition, the “resistance to bleaching with H2O2” value in data set [4] was “more resistant to bleaching compared to anthocyanins”.

As for `OC[C@H]1O[C@@H](Oc2cc3c(O[C@@H]4O[C@H](CO)[C@@H](O)[C@H](O)[C@H]4O)cc(O)cc3[o+]c2-c2ccc(O)c(O)c2)[C@H](O)[C@@H](O)[C@@H]1O` [Cy-3-glu-5-glu], the pKh in data set [5] is given as 2.23.

These data come from patent US20180346731A1, “Formation of Stable Pyranoanthocyanins, and Uses Thereof as Sources of Natural Color” (Ohio State Innovation Foundation, priority 2017, published 2018).
